According to patent publication US20100048482A1, “COMPOSITIONS AND METHODS FOR MODULATING EPSILON PROTEIN KINASE C-MEDIATED CYTOPROTECTION” (Board of Trustees of the Leland Stanford Junior University, priority 2008, published 2010):
Entries after “also recorded” stand apart in the source; their conditions may differ. Ends that are not written are not given here.

How the values were obtained:
[1] = tested on: Langendorff perfused rat heart; test: Ex vivo Langendorff perfused rat heart ischemia-reperfusion, creatine phosphokinase (CPK) release; conditions: for effect on IR-induced CPK release / IR injury: ex vivo IR
Method: In accordance with a well-established ex vivo rat heart model for ischemia-reperfusion (see, e.g., U.S. Publication Nos. 20080167247, 20080153926, 20070299012, and 20060293237, which are herein incorporated by reference) and the method described in Example 1, hearts were removed from animals (rats) and subjected to a normoxia or an IR protocol, both depicted in FIG. 1A. The normoxia regimen comprised exposing hearts to 70 minutes of a normal oxygen state. The IR (ischemia/reperfusion) regimens comprised subjecting hearts to 20 minutes of normoxia, followed by 35 minutes of ischemia, followed by 15 minutes of reperfusion. […] The amount of necrotic cell death was then determined by measuring the release of creatine phosphokinase (CPK) into the buffer perfusate during reperfusion, which served as an indicator of ischemic damage.
(§1) Rat hearts (Wistar, 250-300 g) were excised and cannulated on a Langendorff apparatus via the aorta. Briefly, retrograde perfusion was carried out with a constant coronary flow rate of 10 ml/min with oxygenated Krebs-Henseleit buffer containing 120 mM NaCl, 5,8 mM KCl, 25 mM NaHCO3, […], 1.2 mM MgSO4, 1.2 mM CaCl2, and 10 mM dextrose, pH 7.4 at 37° C. After a 20 min equilibration period, hearts were subjected to a 35 min of no-flow, global ischemia followed by 15 min of reperfusion. Control hearts were perfused with normoxic Krebs buffer and were time-matched for the experimental period. […] At the end of the 15 mins reperfusion period, hearts were rapidly transferred to ice-cold homogenization buffer and subcellular fractions separated by differential centrifugation as described below.
Necrotic damage was determined by measurement of the release of the cardiac myocyte cytosolic enzyme, creatine phosphokinase (CPK), into the effluent (FIG. 1B). The levels are expressed in arbitrary CPK units.
Isolated rat hearts were perfused with oxygenated Krebs-Henseleit solution comprised of NaCl ([…]); KCl ([…]); NaHCO3 ([…]); NaH2O4 ([…]); MgSO4 (1.2 nmol/L); CaCl2 (1.0 nmol/L); and dextrose (10 nmol/L), pH 7.4 at 37 C. After a 10 minute equilibration period, the hearts were treated with the ψεHSP90 peptide or control buffer solution. As depicted in FIG. 5A, Perfusion was maintained at a constant flow of 10 mL/min with Krebs-Henseleit solution containing 1 μM of the appropriate peptide. The Langendorff method employs retrograde flow […] and into the coronary arteries, bypassing the pulmonary arteries. To induce global ischemia, flow was interrupted for 35 minutes. After the ischemic event, the hearts were reperfused with Krebs-Henseleit solution for 15 minutes.
During reperfusion, ischemia-induced cell damage was determined by measuring the activity of creatine phosphokinase (CPK) in the coronary perfusate, carried out using a standard assay kit (Equal Diagnostics, CT, USA). The ψεHSP90 peptide was perfused in Langendorf mode for 10 minutes before and 10 minutes after the ischemic period (1 micromolar) and myocardial injury was assayed by the release of CPK into the effluent during reperfusion (FIG. 5B). Similar to the previous results, hearts that were subjected to IR had high levels of CPK in the effluent; however, perfusion with ψεHSP90 peptide decreased CPK release by 47% (n4; p<0.05; FIG. 5B). Translocation of εPKC and the related isoform δPKC to the mitochondria and plasma membrane was determined by western blotting using εPKC and δPKC antibodies (Santa Cruz Biotechnology) (FIG. 5C). […] Physical interaction between PKCε and HSP90 was determined by co-immunoprecipitation of PKCε and HSP90 in the mitochondrial fraction in hearts exposed to normoxia or IR in the absence or presence of 1 μM ψεHSP90 (FIG. 5D).

[2] = biological target: T1, εPKC (Rattus norvegicus, UniProt P09216); test: IR-induced mitochondrial translocation of εPKC (western blot of heart mitochondrial fraction)
T1 construct: Rat heart ventricles were removed from the cannula and homogenized; from tissue; host or cells: Wistar rat heart ventricle; mitochondrial, IMM or plasma membrane fractions
T1 sequence (P09216 1-737): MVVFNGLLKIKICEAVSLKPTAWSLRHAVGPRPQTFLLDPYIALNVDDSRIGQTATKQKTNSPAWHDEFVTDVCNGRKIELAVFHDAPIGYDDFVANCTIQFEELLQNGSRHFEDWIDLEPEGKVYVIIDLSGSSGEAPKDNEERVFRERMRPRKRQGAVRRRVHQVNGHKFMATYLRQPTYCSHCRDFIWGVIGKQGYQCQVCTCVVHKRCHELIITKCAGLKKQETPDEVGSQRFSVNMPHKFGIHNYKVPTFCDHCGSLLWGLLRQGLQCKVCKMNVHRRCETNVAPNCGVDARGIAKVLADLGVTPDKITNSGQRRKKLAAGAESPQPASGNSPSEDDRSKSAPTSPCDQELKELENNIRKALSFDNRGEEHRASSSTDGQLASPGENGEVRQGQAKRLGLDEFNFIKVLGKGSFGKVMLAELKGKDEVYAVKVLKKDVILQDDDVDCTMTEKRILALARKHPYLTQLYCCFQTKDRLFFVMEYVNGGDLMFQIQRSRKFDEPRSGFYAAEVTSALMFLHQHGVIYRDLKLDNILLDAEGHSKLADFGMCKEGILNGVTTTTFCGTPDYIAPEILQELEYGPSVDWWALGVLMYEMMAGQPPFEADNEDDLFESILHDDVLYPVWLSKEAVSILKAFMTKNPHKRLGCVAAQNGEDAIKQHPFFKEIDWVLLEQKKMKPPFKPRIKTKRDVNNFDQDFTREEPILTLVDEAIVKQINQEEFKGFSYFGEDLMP
Method: as §1
Rat heart ventricles were removed from the cannula and homogenized in ice-cold mannitol-sucrose buffer (210 mM mannitol, 70 mM sucrose, 5 mM MOPS and 1 mM EDTA containing Sigma Protease Inhibitor 1 and Sigma Phosphatase Inhibitors 1 and 2, added per manufacturer's instructions) The resultant homogenate was filtered through gauze and centrifuged at 700 g for 5 minutes to pellet nuclei and cellular debris. […] Mitochondrial purity was also assessed by electron microscopic analysis. Protein concentration was determined by Bradford assay and 10 μg protein separated on a 12% SDS-PAGE gel and transferred to nitrocellulose. PKC translocation was measured using antibodies raised against εPKC and δPKC with mitochondrial (ANT) and cytosolic (GAPDH) markers used to ensure equal sample loading of the mitochondrial and cytosolic fractions, respectively. […]
During reperfusion, ischemia-induced cell damage was determined by measuring the activity of creatine phosphokinase (CPK) in the coronary perfusate, carried out using a standard assay kit (Equal Diagnostics, CT, USA). […] Translocation of εPKC and the related isoform δPKC to the mitochondria and plasma membrane was determined by western blotting using εPKC and δPKC antibodies (Santa Cruz Biotechnology) (FIG. 5C). […]

[3] = tested on: δPKC; test: IR-induced mitochondrial translocation of δPKC (western blot of heart mitochondrial fraction); parameters: species or system rat; conditions: 1 μM ψεHSP90
[4] = biological target: T2, εPKC and HSP90 (Rattus norvegicus, UniProt P09216); test: Co-immunoprecipitation of εPKC and HSP90 in heart mitochondrial fraction after IR
T2 construct: 200-500 μg of mitochondrial or cytosolic protein was diluted into 1 ml of IP Lysis Buffer; from tissue; host or cells: Wistar rat heart; mitochondrial (and cytosolic) fraction
T2 sequence (P09216 1-737): T1 sequence (P09216 1-737)
Method: Since εPKC and HSP90 are predominately cytosolic proteins, it was expected to observe co-immunoprecipitation of εPKC and HSP90 in the cytosolic fraction following exposure to IR.
200-500 μg of mitochondrial or cytosolic protein was diluted into 1 ml of IP Lysis Buffer (150 mM NaCl, 10 mM Tris-HCl, 5 mM EDTA, 0.1% Triton X-100, pH=7.4, containing Sigma Protease Inhibitor 1 and Sigma Phosphatase Inhibitors 1 and 2). Proteins were incubated with εPKC antibody (2 μg) for 2 hours at 4° C. with inversion mixing. 10 μg of Protein A/G Beads (Santa Cruz Biotechnology) were added and the mixture was incubated overnight at 4° C. with inversion mixing. Beads were then centrifuged, washed 3× in IP Lysis Buffer, then re-suspended in sample buffer. Immunoprecipitated proteins were separated on 10% SDS-PAGE gels. The presence of associated proteins was determined by western blotting using antibodies specific for PKCε HSP90, TOM20 and TIM23. Protein immunoprecipitation was then repeated in reverse (immunoprecipitation with HSP90, TOM20 or TIM23 antibodies followed by western blotting with εPKC antibody). […]

[5] = biological target: T3, PKCε (Rattus norvegicus, UniProt P09216); test: PKCε translocation to plasma membrane fraction after IR (western blot); conditions: 1 μM ψεHSP90
T3 construct: Rat heart ventricles were removed from the cannula and homogenized; from tissue; host or cells: Wistar rat heart ventricle; mitochondrial, IMM or plasma membrane fractions
T3 sequence (P09216 1-737): T1 sequence (P09216 1-737)
Method: Rat heart ventricles were removed from the cannula and homogenized in ice-cold mannitol-sucrose buffer (210 mM mannitol, 70 mM sucrose, 5 mM MOPS and 1 mM EDTA containing Sigma Protease Inhibitor 1 and Sigma Phosphatase Inhibitors 1 and 2, added per manufacturer's instructions) The resultant homogenate was filtered through gauze and centrifuged at 700 g for 5 minutes to pellet nuclei and cellular debris. The supernatant was centrifuged at 10,000 g to pellet the mitochondrial-enriched fraction and the supernatant from this fraction centrifuged at 100,000 g to pellet the plasma membrane fraction. […] Mitochondrial purity was also assessed by electron microscopic analysis. Protein concentration was determined by Bradford assay and 10 μg protein separated on a 12% SDS-PAGE gel and transferred to nitrocellulose. PKC translocation was measured using antibodies raised against εPKC and δPKC with mitochondrial (ANT) and cytosolic (GAPDH) markers used to ensure equal sample loading of the mitochondrial and cytosolic fractions, respectively. Densitometry was performed using Image J software (NIH).
During reperfusion, ischemia-induced cell damage was determined by measuring the activity of creatine phosphokinase (CPK) in the coronary perfusate, carried out using a standard assay kit (Equal Diagnostics, CT, USA). […]

[6] = biological target: T4, recombinant human εPKC (Homo sapiens, UniProt Q02156); test: In vitro mitochondrial translocation assay, recombinant GST-εPKC with isolated rat cardiac mitochondria; assay type: biochemical; conditions: for mitochondrial translocation of εPKC in the absence of phospholipids (PS/DAG): 1 μM ψεHSP90, hydrogen peroxide present, no PS/DAG, FIG. 6B lane 5
T4 construct: purchased Cell Signaling Technology
T4 sequence (Q02156 1-737): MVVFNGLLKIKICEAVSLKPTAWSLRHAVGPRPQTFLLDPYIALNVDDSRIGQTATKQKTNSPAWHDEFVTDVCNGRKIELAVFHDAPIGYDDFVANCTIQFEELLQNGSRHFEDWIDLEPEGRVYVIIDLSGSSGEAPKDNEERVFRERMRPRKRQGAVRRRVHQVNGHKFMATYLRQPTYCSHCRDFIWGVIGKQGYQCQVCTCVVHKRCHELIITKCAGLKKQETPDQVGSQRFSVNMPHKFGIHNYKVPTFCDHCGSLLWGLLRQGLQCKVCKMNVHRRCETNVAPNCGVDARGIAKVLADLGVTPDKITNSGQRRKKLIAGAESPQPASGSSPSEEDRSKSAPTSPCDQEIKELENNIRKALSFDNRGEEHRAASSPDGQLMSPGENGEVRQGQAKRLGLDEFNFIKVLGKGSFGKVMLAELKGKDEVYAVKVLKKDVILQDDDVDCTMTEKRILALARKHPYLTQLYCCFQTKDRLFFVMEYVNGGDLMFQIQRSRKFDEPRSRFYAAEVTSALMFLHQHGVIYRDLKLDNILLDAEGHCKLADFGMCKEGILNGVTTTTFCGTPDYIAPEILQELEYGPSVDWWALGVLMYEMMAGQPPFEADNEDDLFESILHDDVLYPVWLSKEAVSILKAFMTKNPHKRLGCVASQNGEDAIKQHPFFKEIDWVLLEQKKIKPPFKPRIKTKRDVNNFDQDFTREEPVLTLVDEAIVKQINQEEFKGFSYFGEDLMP
Method: An in vitro approach was used to identify cellular components that were important for εPKC translocation to the mitochondria. As described in Example 5, mitochondria were isolated from normoxic hearts and incubated for 20 minutes at 37° C. with purified recombinant GST-tagged εPKC (Cell Signaling Technology Inc,), which was pretreated by different combinations of PKC activation components including phospholipids and hydrogen peroxide (H2O2) in the absence (FIG. 6A) and presence (FIG. 6B) of the ψεHSP90 peptide. Following incubation of PKCε with its activation components, mitochondria were introduced into the εPKC mixture and incubated for an additional 20 minutes, after which the mitochondria were pelleted by centrifugation and then probed with antibodies selective for PKCε and the mitochondrial marker VDAC The use of GST-tagged εPKC allowed the distinction, based on size, between exogenous GST-εPKC and native/endogenous εPKC present in the mitochondria prior to treatment. Rabbit reticulocyte lysate (RRL) was used as an exogenous source of HSP90 as described previously (Scherrer et al., Biochemistry. 1992. 31:7325-7329)
Activation of recombinant εPKC was performed as described in the art. Briefly, recombinant εPKC (5 μl of 10 ng/μl stock) (Cell Signaling Technology) was aliquoted into assay buffer (20 mM Tris HCl, 50 mM KCl, 1 mM DTT, 0.1 mg/ml BSA Mg^2+ (5 mM), ATP (100 μM), pH 7.4) containing different combinations of activation factors including phosphatidylserine/diacylglycerol (1 mM), H2O2 (50 μM) or ψεHSP90 (1 μm) in a final volume of 50 μl . εPKC was activated by incubation in assay buffer at 37° C. for 20 min. Rabbit reticulocyte lysate (RRL) (10 μl) was added to the incubation mixture for 10 minutes after εPKC activation. […] Mitochondria were then spun at 10,000 g×10 min, resuspended in 50 μl sample loading buffer and mitochondrial εPKC levels measured by western blotting using VDAC as a loading control. […]

Compound	increase in CPK release ([1]; IR (35 min ischemia, 15 min reperfusion) with 5 μM GA during reperfusion, versus IR alone, n=7, p<0.05)	effect on CPK release in the absence of IR injury ([1]; normoxic hearts, 5 μm or 10 μm GA)	block of IR-induced translocation of εPKC to the mitochondrial fraction ([2]; GA 5 μm during reperfusion, n=5, p<0.05)	effect on IR-induced CPK release / IR injury ([1]; 1 μM TAT-conjugated peptide)	effect on IR-induced CPK release / IR injury ([1]; 1 μM TAT-conjugated peptide, listed as corresponding sequence from the HSP90 protein)	reduction of IR-induced CPK release ([1]; 1 μM TAT-conjugated peptide, 10 min before ischemia and first 10 min of reperfusion, versus IR alone, p<0.05)	effect on mitochondrial translocation of PKCε after IR ([2]; 1 μM ψεHSP90)	higher mitochondrial PKCε levels versus IR group untreated with peptide ([2]; IR in the presence of 1 μm ψεHSP90 peptide)	effect on PKCδ association with the mitochondria after IR [3]	effect on IR-induced physical association of PKCε and HSP90 at the mitochondria ([4]; 1 μM ψεHSP90)	increase in IR-induced physical interaction between HSP90 and PKCε (co-immunoprecipitation) ([4]; 1 μM ψεHSP90, mitochondrial fraction)	effect on PKCε translocation to the plasma membrane [5]	mitochondrial translocation of εPKC in the absence of phospholipids (PS/DAG) [6]	mitochondrial translocation of εPKC in the absence of phospholipids (PS/DAG) ([6]; listed as ψεHSP90)	effect on association/translocation of εPKC with isolated mitochondria in vitro ([6]; 1 μM ψεHSP90, FIG. 6B lanes 2-5)
COC1=C2C[C@@H](C)C[C@H](OC)[C@H](O)[C@@H](C)/C=C(\C)[C@H](OC(N)=O)[C@@H](OC)/C=C\C=C(/C)C(=O)NC(=CC1=O)C2=O [GA, geldanamycin]	176%	no effect	54%												
PEDEEEK (not fully specified)				no statistical effect	no effect										
PKDNEER (not fully specified) [ψεHSP90 peptide]				significantly reduced		47%	enhanced	~20%	not altered; also recorded: without effect	increased	~4 fold	did not affect	resulted in translocation of εPKC	sufficient to induce	increased
